Assay results as given in patent publication US7910579B2, “Benzoxazole derivatives” (Tohoku University, priority 2006, dated 2011).
Where two headings read alike, the source gives them in different places.

Legend:
Amyloid β protein 1-40 = molecular target: T1, Amyloid β protein 1-40 (Homo sapiens, UniProt P05067); test: Fluorescence Congo Red Method; format: binding; details: compound 10 μM, amyloid β protein 5 μM; for activity at 10 µM: 1 h
T1 construct: Amyloid β protein 1-40 (bought from Peptide Laboratory); purchased Peptide Laboratory
Protocol: Next described is a screening method for the compounds of the invention. Some of the compounds of the invention could not be screened according to a Thioflavin T method, since their fluorescence wavelength overlaps with that of Thioflavin T. For such compounds, the following novel screening method was introduced. (1) Amyloid β protein 1-40 (bought from Peptide Laboratory) was dissolved in a phosphate buffer (pH 7.4) and left at 37° C. for 4 days. (2) 50 μl of Congo red dissolved in the buffer was applied to a 96-well microplate (final concentration, 0.1, 0.3, 1 μM). (3) 100 μl of amyloid β protein was added to it (final concentration 5 μM), and left as such for 30 minutes. (4) 100 μl of a test compound dissolved in the buffer was added to it (final concentration, 10 μM, and left as such for 60 minutes. (5) Using a fluorescence microplate reader (Spectra Max 190 by Molecular Device), the sample was analyzed at the optimum exciting wavelength and the test wavelength that had been previously determined. (6) The fluorescence intensity in the presence of the test compound, amyloid β protein and Congo red is represented by A; that in the presence of the test compound and Congo red is by B; that in the presence of the test compound and amyloid β protein is by C; and that in the presence of only the test compound is by D. The β structure recognition of the test compound is computed according to the following formula: β structure recognition (%) of test compound={(A−B)/(C−D)}×100. (7) It may be said that the test compound having a higher β structure recognition percentage may have higher binding specificity to amyloid β protein.

[1] = Evaluation of Brain-Penetration and Bone-Seeking Properties of the Labeled Compound in Mouse; format: in vivo; details: for Brain radioactivity / blood radioactivity / bone radioactivity: male ICR mouse, intravenous; for bone radioactivity: thighbone; for Bone-seeking property (bone accumulation) / Washout from brain: mouse; for Bone-seeking property (bone accumulation): 2 to 60 minutes after intravenous injection; for Washout from brain: compared with [^18F] BF-227
Protocol: Separated HPLC fractions containing [^18F] THK-702, [^18F] THK-761, [^18F] THK-763 or [^18F] BF-227 obtained by above mentioned synthesis of label were diluted with distilled water (about 20 mL), loaded thereon Sep-PaktC18 cartridge (produced by Waters Corporation). And the cartridge was washed by distilled water (5 to 10 mL), and labeled compound by EtOH (3 to 5 mL). A proper amount of 5% polysorbate 80-ethanol solution was added in the EtOH eluate and solvent was distilled away by a rotary evaporator with heating at 80° C. Obtained residue (mixture of the label compound and polysorbate 80) was dissolved in saline to prepare the labeled compound-containing saline. The radiochemical purity of chemical after the preparation was 95% or more.
Saline containing [^18F] BF-227, [^18F] THK-702, [^18F] THK-761 or [^18F] THK-763 was administered by intravenous injection through the tail vein of male ICR mouse (6 to 7 week), and brain-penetration and bone-seeking properties of each labeled compound was evaluated in the terms of seeking property of radioactivity in brain-tissue and bone tissue at 2, 30, 60 minutes after the injection.
The radiochemical purity of the saline containing the labeled compound used in the present invention was 95% or more, and the specific radioactivity was 18.5 to 148 GBq/μmol. 1.11 to 2.22 Mbq of the labeled compound per mouse was administrated. In evaluation of seeking property of radioactivity, the proportion of radioactivity in unit weight of evaluated tissue to all dosed radioactivity (% Injected Dose/g of tissue; % ID/g) was used as an index. Gamma counter (1480 WIZARD, produced by PerkinElmer, Inc.) was used in the measurement of radioactivity. Experimental procedures will be explained as follows. The labeled compound was administered by intravenous injection through the tail vein, 2, 30 and 60 minutes after the injection, cervical dislocation of the mouse was conducted under ether anesthesia, and blood was collected from heart rapidly. And then, whole brain (containing cerebellum and brain-stem) and thighbone of mouse were extracted. Moreover, radioactivity and the tissue weight of each sample were measured, the resulting data was used for calculating % ID/g.

[2] = tested on: histidine-requiring Salmonella typhimurium TA100 and TA98 strains; test: Mutagenicity Test (reverse mutation test); format: cell-based; details: for Relative activity (mutagenicity): irrespective of the absence or presence of S9mix; for Relative Activity in the presence of S9Mix / Relative Activity in the absence of S9Mix: reverse mutation test
Protocol: In view of their use, it is desirable that the compounds of the invention have no mutagenicity or have little mutagenicity to a level causing no problem. For investigating the gene mutagenesis of the compounds of the invention, herein carried out was a reverse mutation test with histidine-requiring Salmonella typhimurium TA100 and TA98 strains. Two tests were carried out. One is a test for dose determination test; and the other is for mutagenicity.
The test methods and the mutagenicity of the compounds of the invention are mentioned below. In the dose determination test, six doses of 0.160, 0.800, 4.00, 20.0, 100 and 500 μg/plate (common ratio 5) were tried.
As a result of the dose determination test, when the mutagenicity of the test compound was admitted, then the actual test for mutagenicity was carried out, using the dose capable of giving an accurate dose-reaction curve. When no mutagenicity of the test compound was admitted in the dose determination test and when the growth inhibition of the test cells was admitted therein, then the dose to present the growth inhibition was taken as the maximum dose; and when the growth inhibition was not admitted, then a dose of 5000 μg/plate was taken as the maximum dose. With that, the actual test for mutagenicity was carried out on the level of 6 doses (common ratio 2).
First, a test compound was dissolved or suspended in DMSO, then diluted in order to prepare test compound liquids having a varying concentration.
100 μl of a test compound liquid or a negative control (DMSO) solution was put into a sterilized test tube. Then, for the case in the absence of a metabolic activation system (−S9mix), 500 μl of 0.1 mol/liter sodium-phosphate buffer (pH 7.4) was added to it; and for the case in the presence of a metabolic activation system (+S9mix), 500 μl of S9mix was added to it.
Next, 100 μl of the test strain suspension that had been cultivated with shaking at 37° C. for 8 hours was added to it, and preincubated in a shaking thermostat at 37° C. for 20 minutes. After shaken, 2 ml of top agar was added to it, and the contents were mixed.
Next, the mixture was poured onto a minimal glucose agar plate medium (plate) and spread uniformly thereon, then the top agar was solidified, and the plate was transferred into a thermostat and incubated at 37° C. for 48 hours.
Then, the number of the colonies grown through reverse mutation was counted.
For counting it, […]. After area correction and miss-counting correction, the number of the colonies was computed. When the colony analyzer could not be used owing to the deposition of the test compound or the cell growth inhibition, then the number of the colonies was counted with the naked eye.
In case where the number of the colonies through reverse mutation increased two times or more that of the negative control and where the dose dependency or the reproducibility of the increase was admitted, then the tested sample was decided as positive. When the sample was is decided as positive, then the relative activity that indicates the relative comparative value of the intensity of the mutagenicity of the test compound was obtained according to the following formula: Relative Activity={(number of colonies per plate having the concentration)−(number of colonies per negative control plate)}/the value of concentration (mg/plate).

T1 sequence (P05067 672-711): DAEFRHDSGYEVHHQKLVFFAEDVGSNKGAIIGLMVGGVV

Structure (SMILES)	Brain radioactivity ([1]; 2 min) [% ID/g]	blood radioactivity ([1]; 2 min) [% ID/g]	bone radioactivity ([1]; 2 min) [% ID/g]	Brain radioactivity ([1]; 30 min) [% ID/g]	blood radioactivity ([1]; 30 min) [% ID/g]	bone radioactivity ([1]; 30 min) [% ID/g]	Brain radioactivity ([1]; 60 min) [% ID/g]	blood radioactivity ([1]; 60 min) [% ID/g]	bone radioactivity ([1]; 60 min) [% ID/g]	Bone-seeking property (bone accumulation) [1]	Washout from brain [1]	other results
Cc1ccc2c(c1)sc(-c1ccc(N(C)C)cc1)[n+]2C.[Cl-] [Thioflavin T, reference compound]	–	–	–	–	–	–	–	–	–	–	–	Binding Percentage of Compound in the presence of 0.1 μM CR (Amyloid β protein 1-40; Congo red 0.1 μM): 49.4%; Binding Percentage of Compound in the presence of 0.3 μM CR (Amyloid β protein 1-40; Congo red 0.3 μM): 22.3%; Binding Percentage of Compound in the presence of 1 μM CR (Amyloid β protein 1-40; Congo red 1 μM): 9.3%
OCC(CF)Oc1ccc2nc(/C=C/c3cnc(N4CCSCC4)s3)oc2c1 (stereo not shown) [THK-767, (E)-6-[(1-fluoromethyl-2-hydroxy)ethoxy]-2-[2-(2-thiomorpholinothiazol-5-yl)ethenyl]benzoxazole]	–	–	–	–	–	–	–	–	–	–	–	activity at 10 µM (Amyloid β protein 1-40; Congo red 0.1 μM, read-out: Binding Percentage of Compound in the presence of 0.1 μM CR): 60%; activity at 10 µM (Amyloid β protein 1-40; Congo red 0.3 μM, read-out: Binding Percentage of Compound in the presence of 0.3 μM CR): 29.9%; activity at 10 µM (Amyloid β protein 1-40; Congo red 1 μM, read-out: Binding Percentage of Compound in the presence of 1 μM CR): 15.9%
OCC(CF)Oc1ccc2nc(/C=C/c3cnc(N4CCOCC4)s3)oc2c1 (stereo not shown) [[^18F]THK-702]	4.15	3.34	1.95	0.53	1.06	0.92	0.35	0.67	1.16	have not found	excellent characteristics in washout from brain more than [^18F] BF-227	–
N#CC(C#N)=Cc1ncc(/C=C/c2nc3ccc(OCC(CO)CF)cc3o2)s1 (stereo not shown) [THK-683, (E)-2-[2-(2,2-dicyano-ethenylthiazol-5-yl)ethenyl]-6-[(2-fluoromethyl-3-hydoxy)propoxy]benzoxazole]	–	–	–	–	–	–	–	–	–	–	–	Relative activity (mutagenicity) [2]: minus; Relative Activity in the presence of S9Mix [2]: minus; Relative Activity in the absence of S9Mix [2]: minus
CNc1ncc(/C=C/c2nc3ccc(OC(CO)CF)cc3o2)s1 (stereo not shown) [[^18F]THK-761]	1.67	3.16	1.36	0.22	0.78	0.88	0.13	0.34	0.95	have not found	excellent characteristics in washout from brain more than [^18F] BF-227	–
CN(C)c1ncc(/C=C/c2nc3ccc(OC(CO)CF)cc3o2)s1 (stereo not shown) [[^18F]THK-763]	4.64	3.65	1.84	0.53	1.19	0.88	0.28	0.64	1.38	have not found	excellent characteristics in washout from brain more than [^18F] BF-227	–
CN(C)c1ncc(C=Cc2nc3ccc(OCCF)cc3o2)s1 [[^18F]BF-227, 2-[2-(2-dimethylaminothiazol-5-yl)ethenyl]-6-(2-fluoroethoxy)benzoxazol, reference compound]	6.05	2.93	1.59	1.91	2.14	4.38	1.67	2.09	7.04	significant time-dependent bone-seeking property after the injection has been found	–	–
CC1(C)c2ccccc2N2CCC(=O)NC21/C=C/c1ccc(N2CCOCC2)cc1 (stereo not shown) [THK-336]	–	–	–	–	–	–	–	–	–	–	–	Relative activity (mutagenicity) [2]: minus; Relative Activity in the presence of S9Mix [2]: minus; Relative Activity in the absence of S9Mix [2]: minus
